Patent publication US11331393B2, “Renal-homing peptide conjugates and methods of use thereof” (BLAZE BIOSCIENCE, INC., priority 2017, dated 2022)
Ends that are not written are not given here.

Test system: kidneys
Conditions: unlabeled competitor 100 or 2000 nmol co-injected with 2 nmol SEQ ID NO: 4-AF647; 1 hour

Question: Which “competition with uptake of the peptide of SEQ ID NO: 4 in kidneys” value does the source give for KKEEEKKEEEKKEEEKK [SEQ ID NO: 571] here?
Answer: Its value is “failed to compete”.
